Laboratory results as given in patent US20110190280A1, “Thiazole And Oxazole Kinase Inhibitors” (priority 2007, published 2011).
Counter-ions that a name gives are not always drawn.

How the values were obtained:
B-Raf = B-Raf (Homo sapiens, UniProt P15056); test: B-Raf Accelerated MEK ATPase assay (BRAMA); format: biochemical; conditions: BRAMA enzyme assay; class by pIC50; read-out: B-Raf Activity
Method in brief: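 B-Raf activity read as intrinsic MEK ATPase: catalytic activated RAF with non-phosphorylated MEK drives ADP formation, coupled through pyruvate kinase and lactate dehydrogenase to NADH oxidation, independent of ERK phosphorylation.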

ErbB2 = ErbB2 (Homo sapiens, UniProt P04626); test: ErbB2 kinase autophosphorylation assay (peptide phosphorylation, HTRF); format: biochemical; conditions: 10 nM ErbB2, HTRF; class by pIC50
Protocol: (§1) A selection of compounds of the present invention were tested for inhibitory activity against EGFR and ErbB2 kinases in autophosphorylation assays.
(§2) The method measures the ability of the isolated enzyme to catalyse the transfer of the gamma-phosphate from ATP onto the tyrosine residue of a biotinylated synthetic peptide referenced “Peptide C” in Brignola, P. S., et al, (2002) J. Biol. Chem. 277(2):1576-1585. The extent of tyrosine phosphorylation was measured using an anti-phosphotyrosine antibody, and quantified by homogenous time-resolved fluorescence (HTRF).
(§3) Reactions were performed in black 384-well polystyrene flat-bottom plates in a final volume of 20 ul. Assays were performed by adding 10 μl of each of the following solutions, substrate Mix and enzyme mix: The Substrate mix contained 100 mM 3-[N-morpholino]propanesulfonic acid (MOPS) (pH 7.5), 2 mM MnCl2, 20 μM ATP, 0.01% Tween-20, 0.1 mg/mL (BSA), 0.8 uM peptide substrate, and 1 mM dithiothreitol. The enzyme mix contained 100 mM MOPS (pH7.5); 0.01% Tween-20; 0.1 mg/mL BSA, and either 0.8 nM EGFR, 10 nM ErbB2, or 1 nM ErbB4
(§4) The enzyme mix was added to the compound plates and the plates were incubated at 20° C. for 1 hour. The reactions were allowed to proceed for 90 minutes at 20° C. The reactions were then terminated by the addition of 20 μl 100 mM EDTA to each well. 40 μl/well of HTRF detection mix were added to the assay plates. The final concentrations of the detection reagents were: 100 mM HEPES (pH7.5), 0.1 mg/mL BSA, 15 nM streptavidin-labeled allophycocyanin (PerkinElmer), and 1 nM europium-labeled anti-phosphotyrosine antibody (PerkinElmer). Assay plates were left unsealed and were counted in a Wallac Multilabel Counter 1420 (PerkinElmer).
(§5) Compounds under analysis were dissolved in Me2SO to 1.0 mM and serially diluted 1 to 3 with Me2SO through twelve dilutions. 1 μl of each concentration was transferred to the corresponding well of an assay plate. This creates a final compound concentration range from 0.00027 to 47.6 μM.
(§6) The data for dose responses were plotted as % Inhibition calculated with the data reduction formula 100*(1−(U1−C2)/(C1−C2)) versus concentration of compound where U is the unknown value, C1 is the average control value obtained for 4.76% DMSO, and C2 is the average control value obtained for 0.035 M EDTA. Data were fitted with a curve described by:
(§7) where Vmax is the upper asymptote, Y2 is the Y intercept, and K is the IC50. The results for each compound were recorded as pIC50s, calculated as follows: […]
(§8) In the following table: • “+” indicates no pIC50 measurement greater than 6 against EGFR or ErbB2, • “++” indicates at least one pIC50 measurement greater than 6 against EGFR or ErbB2 but no measurement greater than pIC50 of 7; and • “+++” indicates at least one pIC50 measurement of greater than 7 against EGFR or ErbB2.

SK-MEL-3 tumor cells = test: Cell growth inhibition assay (CellTiter-Glo), SK-MEL-3; conditions: Homo sapiens, SK-MEL3, 72 h, read-out: Activity in SK-MEL-3 Tumor Cells;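 further: human melanoma cells grown with compound for 3 days in 0.2% DMSO, total ATP read by luminescence as proxy for cell number, growth inhibition versus DMSO-treated wells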
SK-MEL-28 tumor cells = test: Cell growth inhibition assay (CellTiter-Glo), SK-MEL-28; conditions: Homo sapiens, SK-MEL-28, 72 h, read-out: Activity in SK-MEL-28 Tumor Cells;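 further: luminescent total ATP as a proxy for cell number, threefold serial dilutions at 0.2% DMSO, percent growth inhibition versus DMSO vehicle control wells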
HT-29 tumor cells = test: Cell growth inhibition assay (CellTiter-Glo), HT-29; conditions: Homo sapiens, HT-29, 72 h, read-out: Activity in HT-29 Tumor Cells;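 further: ATP content read by luminescence as proxy for cell number, growth inhibition versus DMSO vehicle wells, 0.2% DMSO final, nine serial threefold compound dilutions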
Protocol: Cell Growth Inhibition Assays Human colon tumor cells (Colo205) were cultured in RPMI (Mediatech 50-020-PB) containing 10% FBS and 1% penicillin-streptomycin. […] Human melanoma cancer cells (A375-F11S) were cultured in RPMI (Mediatech 50-020-PB) containing 10% FBS, 1% sodium pyruvate, and 1% penicillin-streptomycin. Human colon cancer cells (HT-29) were cultured in high glucose DMEM (Mediatech 50-013-PB) containing 10% FBS and 1% penicillin-streptomycin. Human melanoma cancer cells (SK-MEL-3) were cultured in McCoy's 5A (50-025-PB) containing 15% FBS, and 1% penicillin-streptomycin. All cell lines were maintained at 37° C. in a humidified 5% CO2, 95% air incubator.
The next day, compounds were diluted as follows: For 96-well assays, 13.5 μl of compound in DMSO were diluted using nine (9) serial 1:3 dilutions of 4.5 μl in 9 μl of DMSO. Medium (270 μl/well of RPMI with 10% FBS and 1% penicillin-streptomycin) was added to the plates. Aliquots (7 μl) were added to cells in the final assay giving a final DMSO concentration of 0.2%. For 384-well assays, 15 μl of compound in DMSO were diluted using nine (9) serial 1:3 dilutions of 5 μl in 10 μl of DMSO, followed by a further dilution of 5 μl of compound with 95 μl of medium, of which 2 μl are added to cells in the final assay giving a final DMSO concentration of 0.2%. Cells were incubated at 37° C., 5% CO2 for 3 days.
Total ATP was measured (as a surrogate estimate of cell number) using CellTiter-Glo® (Promega G7571) reagent. Briefly, plates were removed from the incubator and allowed to equilibrate to room temperature for 30 minutes. CellTiter-Glo® (25 μl or 55 μl for 384-well or 96-well assays, respectively) reagent was added to each well and plates were shaken on an orbital plate shaker for 2 minutes. Plates were incubated without shaking for a further 30 minutes and read on an LJL Analyst GT reader in luminometer mode with an integration time of 0.5 seconds per well. Percent inhibition of cell growth was calculated relative to DMSO vehicle-treated control wells.

A375P tumor cells = test: Cell growth inhibition assay (CellTiter-Glo), A375P; conditions: Homo sapiens, 72 h, read-out: Activity in A375P Tumor Cells;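 further: total ATP luminescence used as proxy for cell number, serial threefold compound dilutions at 0.2% DMSO, growth inhibition expressed versus DMSO vehicle-treated wells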
EGFR = EGFR (Homo sapiens, UniProt P00533); test: EGFR kinase autophosphorylation assay (peptide phosphorylation, HTRF); format: biochemical; conditions: 0.8 nM EGFR, class by pIC50
Protocol: as §1, §2, §3, §4, §5, §6, §7, §8

Colo205 tumor cells = test: Cell growth inhibition assay (CellTiter-Glo), Colo205; conditions: Homo sapiens, COLO 205, 72 h, read-out: Activity in Colo205 Tumor Cells;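 further: growth measured via total ATP luminescence (CellTiter-Glo) as a proxy for cell number, inhibition expressed against DMSO-treated control wells, 3-day exposure at 0.2% final DMSO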

Sequence of EGFR (P00533 25-1210): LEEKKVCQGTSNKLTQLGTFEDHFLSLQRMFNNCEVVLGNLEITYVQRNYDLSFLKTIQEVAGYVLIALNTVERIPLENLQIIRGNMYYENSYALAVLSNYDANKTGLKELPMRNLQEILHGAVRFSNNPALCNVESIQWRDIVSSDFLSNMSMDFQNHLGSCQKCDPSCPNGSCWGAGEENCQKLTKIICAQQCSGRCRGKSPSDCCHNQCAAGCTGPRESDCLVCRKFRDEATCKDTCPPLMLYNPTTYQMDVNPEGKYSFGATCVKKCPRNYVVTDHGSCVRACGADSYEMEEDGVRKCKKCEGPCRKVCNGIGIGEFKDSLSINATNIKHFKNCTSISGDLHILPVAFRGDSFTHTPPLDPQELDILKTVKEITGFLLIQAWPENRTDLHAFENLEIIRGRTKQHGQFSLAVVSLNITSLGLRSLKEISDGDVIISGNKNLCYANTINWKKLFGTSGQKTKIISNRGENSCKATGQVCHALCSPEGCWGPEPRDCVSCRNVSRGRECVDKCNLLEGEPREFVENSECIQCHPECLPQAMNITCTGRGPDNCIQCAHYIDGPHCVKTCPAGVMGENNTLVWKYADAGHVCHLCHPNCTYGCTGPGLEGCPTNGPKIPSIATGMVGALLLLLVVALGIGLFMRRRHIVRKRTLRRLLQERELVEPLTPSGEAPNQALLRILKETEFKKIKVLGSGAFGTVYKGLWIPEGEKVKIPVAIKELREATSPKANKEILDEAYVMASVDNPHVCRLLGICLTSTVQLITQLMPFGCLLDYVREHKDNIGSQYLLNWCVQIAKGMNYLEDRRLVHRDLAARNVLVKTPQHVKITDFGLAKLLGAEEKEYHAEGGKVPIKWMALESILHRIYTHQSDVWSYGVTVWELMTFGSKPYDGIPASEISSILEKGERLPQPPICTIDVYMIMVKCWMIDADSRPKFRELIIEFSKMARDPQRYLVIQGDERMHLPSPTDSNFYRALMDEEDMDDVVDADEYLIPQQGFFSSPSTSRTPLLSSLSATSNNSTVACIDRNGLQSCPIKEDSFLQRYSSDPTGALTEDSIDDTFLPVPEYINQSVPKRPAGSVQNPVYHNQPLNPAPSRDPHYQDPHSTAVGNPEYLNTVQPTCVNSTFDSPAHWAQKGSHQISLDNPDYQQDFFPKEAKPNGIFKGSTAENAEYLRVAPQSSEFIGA
Sequence of B-Raf (P15056 whole entry): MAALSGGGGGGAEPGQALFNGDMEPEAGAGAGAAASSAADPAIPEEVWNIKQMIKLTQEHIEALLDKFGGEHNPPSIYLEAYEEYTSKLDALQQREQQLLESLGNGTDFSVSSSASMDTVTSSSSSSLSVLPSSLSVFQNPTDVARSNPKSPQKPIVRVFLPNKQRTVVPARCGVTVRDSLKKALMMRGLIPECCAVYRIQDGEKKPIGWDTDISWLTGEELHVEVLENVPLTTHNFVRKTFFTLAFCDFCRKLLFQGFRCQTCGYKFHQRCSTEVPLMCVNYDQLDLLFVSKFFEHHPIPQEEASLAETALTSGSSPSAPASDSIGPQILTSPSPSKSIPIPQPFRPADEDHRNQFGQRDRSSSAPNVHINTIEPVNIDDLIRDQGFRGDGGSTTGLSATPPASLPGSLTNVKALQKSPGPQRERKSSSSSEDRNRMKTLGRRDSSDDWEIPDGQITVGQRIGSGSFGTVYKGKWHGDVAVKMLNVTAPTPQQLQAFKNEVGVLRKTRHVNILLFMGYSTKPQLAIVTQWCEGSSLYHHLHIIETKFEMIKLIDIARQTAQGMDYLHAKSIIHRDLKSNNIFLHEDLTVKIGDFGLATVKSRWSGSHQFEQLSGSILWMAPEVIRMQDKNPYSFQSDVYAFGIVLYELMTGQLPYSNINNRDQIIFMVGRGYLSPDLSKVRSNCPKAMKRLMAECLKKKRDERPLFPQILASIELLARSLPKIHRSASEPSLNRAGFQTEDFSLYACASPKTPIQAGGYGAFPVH
Sequence of ErbB2 (P04626 23-1255): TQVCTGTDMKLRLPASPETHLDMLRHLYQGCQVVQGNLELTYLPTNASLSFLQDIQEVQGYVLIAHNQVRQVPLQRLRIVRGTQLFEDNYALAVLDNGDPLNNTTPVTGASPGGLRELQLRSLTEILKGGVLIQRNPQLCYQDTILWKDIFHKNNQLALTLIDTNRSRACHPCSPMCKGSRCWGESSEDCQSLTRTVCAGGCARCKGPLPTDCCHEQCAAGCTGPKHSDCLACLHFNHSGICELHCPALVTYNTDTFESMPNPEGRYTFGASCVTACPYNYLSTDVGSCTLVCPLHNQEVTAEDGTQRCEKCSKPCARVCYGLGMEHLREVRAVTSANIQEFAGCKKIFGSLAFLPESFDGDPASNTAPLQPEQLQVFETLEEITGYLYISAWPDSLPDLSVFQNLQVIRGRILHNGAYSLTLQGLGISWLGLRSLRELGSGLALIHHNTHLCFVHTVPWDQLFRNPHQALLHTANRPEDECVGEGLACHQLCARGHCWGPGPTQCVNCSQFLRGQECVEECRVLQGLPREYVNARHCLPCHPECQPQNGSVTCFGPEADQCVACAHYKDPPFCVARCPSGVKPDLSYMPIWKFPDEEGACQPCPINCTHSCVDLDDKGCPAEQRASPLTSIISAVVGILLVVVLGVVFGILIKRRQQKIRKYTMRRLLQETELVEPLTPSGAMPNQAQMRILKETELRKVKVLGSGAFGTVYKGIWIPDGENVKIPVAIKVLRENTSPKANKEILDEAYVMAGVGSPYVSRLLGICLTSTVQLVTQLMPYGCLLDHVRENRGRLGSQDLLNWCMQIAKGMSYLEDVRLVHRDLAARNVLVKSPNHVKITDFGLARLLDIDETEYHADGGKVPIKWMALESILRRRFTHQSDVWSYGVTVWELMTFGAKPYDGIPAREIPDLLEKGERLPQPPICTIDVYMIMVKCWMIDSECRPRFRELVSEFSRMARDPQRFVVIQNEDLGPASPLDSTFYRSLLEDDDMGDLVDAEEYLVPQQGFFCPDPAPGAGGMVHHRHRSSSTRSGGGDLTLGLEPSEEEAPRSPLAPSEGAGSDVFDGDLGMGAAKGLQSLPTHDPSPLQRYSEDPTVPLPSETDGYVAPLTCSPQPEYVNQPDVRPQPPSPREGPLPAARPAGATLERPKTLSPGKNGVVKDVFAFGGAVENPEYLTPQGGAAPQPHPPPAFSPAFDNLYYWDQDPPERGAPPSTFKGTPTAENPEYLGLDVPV

| IC50 (B-Raf) [nM] | IC50 (ErbB2) [nM] | IC50 (SK-MEL-3 tumor cells) [nM] | IC50 (SK-MEL-28 tumor cells) [nM] | IC50 (HT-29 tumor cells) [nM] | IC50 (A375P tumor cells) [nM] | IC50 (EGFR) [nM] | IC50 (Colo205 tumor cells) [nM] | Compound |
| --- | --- | --- | --- | --- | --- | --- | --- | --- |
| < 100 | > 1000 | < 500 | 500 to 5000 | 500 to 5000 | 500 to 5000 | > 1000 | < 500 | CCNc1nc(-c2cc(OC)cc(OC)c2)c(-c2ccnc(Nc3cc(F)c(N4CCN(CCS(C)(=O)=O)CC4)c(F)c3)n2)o1 [Example 91] |
| < 100 | > 1000 | 500 to 5000 | 500 to 5000 | 500 to 5000 | 500 to 5000 | > 1000 | 500 to 5000 | CCNc1nc(-c2cc(OC)cc(OC)c2)c(-c2ccnc(Nc3ccc(N4CCOCC4)c(F)c3)n2)o1 [Example 118] |
| < 100 | > 1000 | < 500 | 500 to 5000 | < 500 | > 5000 | > 1000 | < 500 | CCNc1nc(-c2cc(OC)cc(OC)c2)c(-c2ccnc(Nc3ccc(OC4CCN(CCS(C)(=O)=O)CC4)c(F)c3)n2)o1 [Example 82] |
| < 100 | > 1000 | < 500 | < 500 | < 500 | < 500 | > 1000 | < 500 | CCc1nc(-c2cc(O)cc(OC)c2)c(-c2ccnc(Nc3ccc(OC4CCN(CCS(C)(=O)=O)CC4)c(F)c3)n2)s1 [Example 74, trifluoroacetic acid salt] |
| < 100 | > 1000 | 500 to 5000 | 500 to 5000 | 500 to 5000 | 500 to 5000 | > 1000 | 500 to 5000 | CCNc1nc(-c2cc(OC)cc(OC)c2)c(-c2ccnc(Nc3ccc(OC4CCN(CCS(C)(=O)=O)CC4)c(C)c3)n2)o1 [Example 87] |
| < 100 | < 100 | < 500 | 500 to 5000 | < 500 | 500 to 5000 | 100 to 1000 | 500 to 5000 | Fc1cc(Nc2nccc(-c3sc(N4CCCC4)nc3-c3cccc(Cl)c3)n2)ccc1OCCN1CCCC1 [Example 103] |
| < 100 | > 1000 | < 500 | < 500 | < 500 | < 500 | > 1000 | < 500 | COc1cc(C)cc(-c2nc(C(C)C)sc2-c2ccnc(Nc3ccc(N4CCN(C(C)=O)CC4)nc3)n2)c1 [Example 63, N-[6-(4-Acetyl-1-piperazinyl)-3-pyridinyl]-4-{2-(1-methylethyl)-4-[3-methyl-5-(methyloxy)phenyl]-1,3-thiazol-5-yl}-2-pyrimidinamine] |

Further lines, the molecule ahead of its results:

| Compound | IC50 (B-Raf) [nM] | IC50 (ErbB2) [nM] | IC50 (SK-MEL-3 tumor cells) [nM] | IC50 (SK-MEL-28 tumor cells) [nM] | IC50 (HT-29 tumor cells) [nM] | IC50 (A375P tumor cells) [nM] | IC50 (EGFR) [nM] | IC50 (Colo205 tumor cells) [nM] |
| --- | --- | --- | --- | --- | --- | --- | --- | --- |
| COc1cc(C)cc(-c2nc(C(C)C)sc2-c2ccnc(Nc3ccc(N4CCOCC4)nc3)n2)c1 [Example 61, 4-{2-(1-Methylethyl)-4-[3-methyl-5-(methyloxy)phenyl]-1,3-thiazol-5-yl}-N-[6-(4-morpholinyl)-3-pyridinyl]-2-pyrimidinamine] | < 100 | > 1000 | < 500 | 500 to 5000 | < 500 | < 500 | > 1000 | < 500 |
| CCNc1nc(-c2cc(C)cc(OC)c2)c(-c2ccnc(Nc3ccc(N4CCN(CCF)CC4)c(F)c3)n2)s1 [Example 29, 4-{2-(Ethylamino)-4-[3-methyl-5-(methyloxy)phenyl]-1,3-thiazol-5-yl}-N-{3-fluoro-4-[4-(2-fluoroethyl)-1-piperazinyl]phenyl}-2-pyrimidinamine] | < 100 | > 1000 | < 500 | < 500 | < 500 | < 500 | > 1000 | < 500 |
| CCNc1nc(-c2cc(C)cc(OC)c2)c(-c2ccnc(Nc3ccc(N4CCN(CCS(C)(=O)=O)CC4)c(F)c3)n2)s1 [Example 27, 4-{2-(Ethylamino)-4-[3-methyl-5-(methyloxy)phenyl]-1,3-thiazol-5-yl}-N-(3-fluoro-4-{4-[2-(methylsulfonyl)ethyl]-1-piperazinyl}phenyl)-2-pyrimidinamine] | < 100 | > 1000 | < 500 | < 500 | < 500 | < 500 | > 1000 | < 500 |
| COCCNc1nc(-c2cccc(OC)c2)c(-c2ccnc(Nc3ccc(N4CCOCC4)c(Cl)c3)n2)s1 [Example 43, N-[3-Chloro-4-(4-morpholinyl)phenyl]-4-{2-{[2-(methyloxy)ethyl]amino}-4-[3-(methyloxy)phenyl]-1,3-thiazol-5-yl}-2-pyrimidinamine hydrochloride] | < 100 | < 100 | < 500 | > 5000 | < 500 | < 500 | < 100 | 500 to 5000 |
| CCNc1nc(-c2cc(OC)cc(OC)c2)c(-c2ccnc(Nc3ccc(OC4CCN(CCS(C)(=O)=O)CC4)c(F)c3)n2)s1 [Example 10, 4-[4-[3,5-Bis(methyloxy)phenyl]-2-(ethylamino)-1,3-thiazol-5-yl]-N-[3-fluoro-4-({1-[2-(methylsulfonyl)ethyl]-4-piperidinyl}oxy)phenyl]-2-pyrimidinamine] | < 100 | > 1000 | < 500 | < 500 | < 500 | < 500 | > 1000 | < 500 |
| CCc1nc(-c2ccc(CO)c(OC)c2)c(-c2ccnc(Nc3ccc(N4CCN(C(C)=O)CC4)nc3)n2)s1 [Example 55] | < 100 | > 1000 | < 500 | < 500 | < 500 | < 500 | > 1000 | < 500 |
| CCNc1nc(-c2cc(C)cc(OC)c2)c(-c2ccnc(Nc3ccc(N4CCOCC4)c(F)c3)n2)s1 [Example 28, 4-{2-(Ethylamino)-4-[3-methyl-5-(methyloxy)phenyl]-1,3-thiazol-5-yl}-N-[3-fluoro-4-(4-morpholinyl)phenyl]-2-pyrimidinamine] | < 100 | > 1000 | < 500 | < 500 | < 500 | < 500 | > 1000 | < 500 |
| CCNc1nc(-c2cccc(OC)c2)c(-c2ccnc(Nc3ccc(OC4CCN(CCS(C)(=O)=O)CC4)c(F)c3)n2)s1 [Example 41, 4-{2-(Ethylamino)-4-[3-(methyloxy)phenyl]-1,3-thiazol-5-yl}-N-[3-fluoro-4-({1-[2-(methylsulfonyl)ethyl]-4-piperidinyl}oxy)phenyl]-2-pyrimidinamine] | < 100 | > 1000 | < 500 | < 500 | < 500 | < 500 | 100 to 1000 | < 500 |
